Measurements: patent US6395885B1, “Use of lithium salts of anionic dyes to enhance their light-fastness” (Avecia Limited, priority 1998, dated 2002)

Experiment: Light-fastness of ink jet prints on Xerox Acid paper faded in a weatherometer (colour difference ΔE)
Format: physicochemical
Procedure: Each ink was prepared by dissolving the Dye shown in the second column of Table 1 (0.35 g) in water (8.45 g) by adding ammonia and adjusting the pH to 9.5. 2-pyrrolidone (0.5 g), thiodiglycol (0.5 g) and Surfynol 465 (0.2 g) were then added and the mixture was stirred at ambient temperature. The resulting solution was filtered through a 0.45 μm filter to give the ink.
Each ink shown in Table 1 was loaded into a HP 560 ink jet printer and was applied to Xerox Acid paper using the ink jet printer. When the resulting prints had dried a portion of the print was mounted, half covered, and faded in an Atlas Ci35a weatherometer.
The light-fastness of the prints was assessed by measuring the colour difference (ΔE) between the faded and unfaded portions of the print using an X-Rite 939 spectrodensitometer. The time shown in the column marked ΔE in Table 1 refers to the number of hours the print was faded for in the weatherometer.
A low ΔE value indicates a small colour change after fading in the weatherometer and therefore a high light-fastness.
The light-fastness of Dyes (A) and (B) and the individual sodium and lithium salts thereof were measured as described in Example 1; namely by ink jet printing an ink containing the each dye onto Xerox Acid paper and fading the prints using an Xrite Weatherometer.

## COc1cc(N=Nc2cccc(S(=O)(=O)O)c2)ccc1NC(=O)Nc1ccc(N=Nc2cccc(S(=O)(=O)O)c2)cc1OC [Comparative (3), C.I. Direct Yellow 132]
Ink with 3.5 parts dye printed on Xerox Acid paper, faded 50 hours in Atlas Ci35a weatherometer, low ΔE = high light-fastness
  ΔE (50 hours): 10.77
Measured as in Example 1 (ΔE), ink jet print on Xerox Acid paper, 50 hours of fading
  Light-Fastness (after 50 hours): 11
